Key:
[1] = Rat tissue distribution of 99mTc complexes of example ligands (Table 6); type: in vivo, Sprague-Dawley Rats; conditions: 99mTc complex
Method: Rat Tissue Distribution Studies. The distribution and pharmacokinetics of selected ^99mTc-SAAC complexes were evaluated in normal male Sprague Dawley rats (180-200 grams) administered via the tail vein as a bolus injection (approximately 10 μCi/rat) in a constant volume of 0.1 ml. The animals (n=5 per time point) were euthanized by asphyxiation with carbon dioxide at 5, 30, 60, and 120 min post injection. Tissues (blood, heart, lungs, liver, spleen, kidneys, adrenals, stomach, intestines (with contents), testes, skeletal muscle, bone and brain) were dissected, excised, weighed wet, and counted in an automated γ-counter (LKB Model 1282, Wallac Oy, Finland). Tissue time-radioactivity levels expressed as percent injected dose per gram of tissue (% ID/g) was determined.
^99mTc Complexes of various example ligands in Sprague-Dawley Rats.

[2] = Determination of Log P values of 99mTc-SAAC complexes; type: physicochemical; conditions: 99mTc complex; n-octanol / 25 mM pH=7.4 phosphate buffer
Method: Determination of Log P Values. The Log P values of the ^99mTc(I)-complexes were determined as follows. The ^99mTc-SAAC complexes were prepared and purified by RP-HPLC. The desired peak was collected and the sample was evaporated under a stream of nitrogen. The residue was dissolved in 25 μL of saline and placed in an equal volume of n-octanol (3 mL) and 25 mM pH=7.4 phosphate buffer (3 mL). The samples were mixed under vortex for 20 min, centrifuged at 8000 rpm for 5 min and three 100 μL aliquots were removed from both the aqueous and the organic layers for analysis on a gamma counter (Wallac 1282). Subsequently, 1 mL of the phosphate bufferTc-complex solution was removed and the process was repeated with fresh n-octanol, for a total number of six extractions to ensure full extraction of all the organic components. The partition coefficients were calculated using the equation: P=(activity concentration in n-octanol)/(activity concentration in aqueous layer). The Log P values reported were calculated from the average of the different measurements.

[3] = Normal rat tissue distribution studies of 99mTc-SAAC complexes (Table 5); type: in vivo, male Sprague Dawley rats; conditions: tail vein, average ± SEM
Method: Normal Rat Tissue Distribution Studies. Normal rat tissue distribution studies were performed with [^99mTc(CO)3{η^3-(DpK)}], [Tc(CO)3{η^3-(DTK)}] and [Tc(CO)3{η^3-(PAMAK)}] in groups of male Sprague Dawley rats (n=4/group, 180-200 grams each) at 5, 30, 60, and 120 minutes post injection. The compounds were injected via the tail vein in saline (10 μCi/100 μl). […] All three SAAC ligands had very high accumulation and retention in the gastrointestinal (GI) tract. […] The design of hydrophilic SAAC ligands may alter the pharmacokinetics by mitigating the lipophilicity of the complex and potentially favoring renal, over liver and GI clearance. Such a result may facilitate the development of clinically relevant molecular imaging radiopharmaceuticals with desirable pharmacokinetic properties.

## COC(Cn1ccnc1CN(CCCC[C@H](N)C(=O)O)Cc1nccn1CC(OC)OC)OC (stereo in doubt) [Compound 6, 2-amino-6-(bis((1-(2,2-dimethoxyethyl)-1H-imidazol-2-yl)methyl)amino)hexanoic acid]
[1]; 5 min
  Blood tissue distribution: 1.46 ± 0.21 % ID/g
  GI tissue distribution: 0.34 ± 0.12 % ID/g
  Kidney tissue distribution: 13.82 ± 2.81 % ID/g
  Liver tissue distribution: 1.06 ± 0.34 % ID/g
  Sk. Muscle tissue distribution: 0.3 ± 0.04 % ID/g
[1]; 30 min
  Blood tissue distribution: 0.47 ± 0.05 % ID/g
  GI tissue distribution: 1.05 ± 0.2 % ID/g
  Kidney tissue distribution: 34.1 ± 5.59 % ID/g
  Liver tissue distribution: 0.45 ± 0.04 % ID/g
  Sk. Muscle tissue distribution: 0.1 ± 0.01 % ID/g
[1]; 60 min
  Blood tissue distribution: 0.14 ± 0.04 % ID/g
  GI tissue distribution: 1.39 ± 0.24 % ID/g
  Kidney tissue distribution: 40.25 ± 5.17 % ID/g
  Liver tissue distribution: 0.24 ± 0.04 % ID/g
  Sk. Muscle tissue distribution: 0.04 ± 0.01 % ID/g
[1]; 120 min
  Blood tissue distribution: 0.04 ± 0.01 % ID/g
  GI tissue distribution: 1.21 ± 0.27 % ID/g
  Kidney tissue distribution: 33.18 ± 2.75 % ID/g
  Liver tissue distribution: 0.16 ± 0.02 % ID/g
  Sk. Muscle tissue distribution: 0.01 ± 0 % ID/g

## Cn1ccnc1CN(CCCC[C@H](N)C(=O)O)CC(=O)O [Compound 18, (S)-2-amino-6-((carboxymethyl)((1-methyl-1H-imidazol-2-yl)methyl)amino) hexanoic acid]
[1]; 5 min
  Blood tissue distribution: 1.03 ± 0.14 % ID/g
  GI tissue distribution: 0.16 ± 0.01 % ID/g
  Kidney tissue distribution: 10.79 ± 1.97 % ID/g
  Liver tissue distribution: 0.95 ± 0.14 % ID/g
  Sk. Muscle tissue distribution: 0.21 ± 0.05 % ID/g
[1]; 30 min
  Blood tissue distribution: 0.45 ± 0.1 % ID/g
  GI tissue distribution: 1.96 ± 0.49 % ID/g
  Kidney tissue distribution: 17.05 ± 3.17 % ID/g
  Liver tissue distribution: 3.02 ± 0.59 % ID/g
  Sk. Muscle tissue distribution: 0.09 ± 0.02 % ID/g
[1]; 60 min
  Blood tissue distribution: 0.22 ± 0.02 % ID/g
  GI tissue distribution: 1.64 ± 0.64 % ID/g
  Kidney tissue distribution: 9.52 ± 2.54 % ID/g
  Liver tissue distribution: 0.98 ± 0.22 % ID/g
  Sk. Muscle tissue distribution: 0.05 ± 0.01 % ID/g
[1]; 120 min
  Blood tissue distribution: 0.09 ± 0.01 % ID/g
  GI tissue distribution: 2.53 ± 0.7 % ID/g
  Kidney tissue distribution: 3.94 ± 0.43 % ID/g
  Liver tissue distribution: 0.44 ± 0.14 % ID/g
  Sk. Muscle tissue distribution: 0.02 ± 0 % ID/g

## NC(CCCCN1CC(=O)[O][Tc-][O]C(=O)C1)C(=O)O.[C-]#[O+].[C-]#[O+].[C-]#[O+] (stereo not shown) [Compound 7-Tc]
[2]
  Log P: −2.20

## CCOCCn1ccnc1CN(CCCC[C@H](N)C(=O)O)Cc1nccn1CCOCC (stereo in doubt) [Compound 4, 2-amino-6-(bis((1-(2-ethoxyethyl)-1H-imidazol-2-yl)methyl)amino)hexanoic acid]
[1]; 5 min
  Blood tissue distribution: 0.83 ± 0.09 % ID/g
  GI tissue distribution: 0.57 ± 0.13 % ID/g
  Kidney tissue distribution: 6.86 ± 0.86 % ID/g
  Liver tissue distribution: 1.61 ± 0.32 % ID/g
  Sk. Muscle tissue distribution: 0.13 ± 0.02 % ID/g
[1]; 30 min
  Blood tissue distribution: 0.09 ± 0.02 % ID/g
  GI tissue distribution: 2.33 ± 0.61 % ID/g
  Kidney tissue distribution: 12.13 ± 2.36 % ID/g
  Liver tissue distribution: 0.35 ± 0.08 % ID/g
  Sk. Muscle tissue distribution: 0.02 ± 0.01 % ID/g
[1]; 60 min
  Blood tissue distribution: 0.02 ± 0 % ID/g
  GI tissue distribution: 3.62 ± 0.3 % ID/g
  Kidney tissue distribution: 12.54 ± 1 % ID/g
  Liver tissue distribution: 0.28 ± 0.07 % ID/g
  Sk. Muscle tissue distribution: 0.01 ± 0 % ID/g
[1]; 120 min
  Blood tissue distribution: 0.01 ± 0 % ID/g
  GI tissue distribution: 2.96 ± 0.44 % ID/g
  Kidney tissue distribution: 12.54 ± 0.81 % ID/g
  Liver tissue distribution: 0.14 ± 0.02 % ID/g
  Sk. Muscle tissue distribution: 0.01 ± 0 % ID/g

## (pyridylamine)monoacetic acid lysine [PAMA-K]
[2]
  Log P: −1.80

## N[C@@H](CCCCN(Cc1nccn1CC(=O)O)Cc1nccn1CC(=O)O)C(=O)O (stereo in doubt) [Compound 2, 2,2′-(2,2′-(5-amino-5-carboxypentylazanediyl)bis(methylene)bis(1H-imidazole-2,1-diyl))diacetic acid]
[1]; 5 min
  Blood tissue distribution: 1.33 ± 0.2 % ID/g
  GI tissue distribution: 0.15 ± 0.02 % ID/g
  Kidney tissue distribution: 6.85 ± 1.85 % ID/g
  Liver tissue distribution: 0.52 ± 0.07 % ID/g
  Sk. Muscle tissue distribution: 0.29 ± 0.04 % ID/g
[1]; 30 min
  Blood tissue distribution: 1.14 ± 0.23 % ID/g
  GI tissue distribution: 0.44 ± 0.08 % ID/g
  Kidney tissue distribution: 10.7 ± 2.3 % ID/g
  Liver tissue distribution: 0.55 ± 0.07 % ID/g
  Sk. Muscle tissue distribution: 0.21 ± 0.06 % ID/g
[1]; 60 min
  Blood tissue distribution: 0.86 ± 0.17 % ID/g
  GI tissue distribution: 0.76 ± 0.31 % ID/g
  Kidney tissue distribution: 16.8 ± 4.8 % ID/g
  Liver tissue distribution: 0.42 ± 0.08 % ID/g
  Sk. Muscle tissue distribution: 0.16 ± 0.03 % ID/g
[1]; 120 min
  Blood tissue distribution: 0.72 ± 0.12 % ID/g
  GI tissue distribution: 1.22 ± 0.27 % ID/g
  Kidney tissue distribution: 10.2 ± 2.5 % ID/g
  Liver tissue distribution: 0.39 ± 0.07 % ID/g
  Sk. Muscle tissue distribution: 0.14 ± 0.02 % ID/g

## [^99mTc(CO)3(DPK)]
[3]; 5 Min post injection
  Blood tissue distribution: 7.01 ± 1.38 % ID/g
  GI tissue distribution: 4.65 ± 1.78 % ID/g
  Kidney tissue distribution: 8.88 ± 3.20 % ID/g
  Liver tissue distribution: 16.28 ± 5.12 % ID/g
[3]; 30 Min. post injection
  Blood tissue distribution: 1.12 ± 0.31 % ID/g
  GI tissue distribution: 15.01 ± 1.82 % ID/g
  Kidney tissue distribution: 9.72 ± 0.68 % ID/g
  Liver tissue distribution: 26.03 ± 1.50 % ID/g
[3]; 60 Min. post injection
  Blood tissue distribution: 0.39 ± 0.16 % ID/g
  GI tissue distribution: 24.46 ± 6.20 % ID/g
  Kidney tissue distribution: 9.47 ± 1.23 % ID/g
  Liver tissue distribution: 22.71 ± 1.14 % ID/g
[3]; 120 Min post injection
  Blood tissue distribution: 0.18 ± 0.01 % ID/g
  GI tissue distribution: 38.90 ± 5.94 % ID/g
  Kidney tissue distribution: 7.08 ± 1.58 % ID/g
  Liver tissue distribution: 14.44 ± 2.75 % ID/g

## Cn1ccnc1CN(CCCC[C@H](N)C(=O)O)Cc1nccn1C [Compound 13, (S)-2-amino-6-(bis((1-methyl-1H-imidazol-2-yl)methyl)amino)hexanoic acid]
[1]; 5 min
  Blood tissue distribution: 1.18 ± 0.18 % ID/g
  GI tissue distribution: 0.15 ± 0.02 % ID/g
  Kidney tissue distribution: 6.65 ± 2.06 % ID/g
  Liver tissue distribution: 0.8 ± 0.28 % ID/g
  Sk. Muscle tissue distribution: 0.22 ± 0.03 % ID/g
[1]; 30 min
  Blood tissue distribution: 0.28 ± 0.03 % ID/g
  GI tissue distribution: 0.45 ± 0.11 % ID/g
  Kidney tissue distribution: 22.2 ± 3.9 % ID/g
  Liver tissue distribution: 1.03 ± 0.21 % ID/g
  Sk. Muscle tissue distribution: 0.06 ± 0.02 % ID/g
[1]; 60 min
  Blood tissue distribution: 0.11 ± 0.02 % ID/g
  GI tissue distribution: 0.84 ± 0.1 % ID/g
  Kidney tissue distribution: 25.4 ± 1.7 % ID/g
  Liver tissue distribution: 0.86 ± 0.16 % ID/g
  Sk. Muscle tissue distribution: 0.03 ± 0.01 % ID/g
[1]; 120 min
  Blood tissue distribution: 0.03 ± 0.01 % ID/g
  GI tissue distribution: 1.12 ± 0.37 % ID/g
  Kidney tissue distribution: 25.5 ± 3.4 % ID/g
  Liver tissue distribution: 0.74 ± 0.14 % ID/g
  Sk. Muscle tissue distribution: 0.01 ± 0 % ID/g
